This note sets out measurements from article PMC9457941, “Synthesis and Kinase Inhibitory Potencies of Pyrazolo[3,4-g]isoquinolines” (Molecules, 2022).

pIC50: −log10 of the molar value.

T4 sequence (P49841 whole entry): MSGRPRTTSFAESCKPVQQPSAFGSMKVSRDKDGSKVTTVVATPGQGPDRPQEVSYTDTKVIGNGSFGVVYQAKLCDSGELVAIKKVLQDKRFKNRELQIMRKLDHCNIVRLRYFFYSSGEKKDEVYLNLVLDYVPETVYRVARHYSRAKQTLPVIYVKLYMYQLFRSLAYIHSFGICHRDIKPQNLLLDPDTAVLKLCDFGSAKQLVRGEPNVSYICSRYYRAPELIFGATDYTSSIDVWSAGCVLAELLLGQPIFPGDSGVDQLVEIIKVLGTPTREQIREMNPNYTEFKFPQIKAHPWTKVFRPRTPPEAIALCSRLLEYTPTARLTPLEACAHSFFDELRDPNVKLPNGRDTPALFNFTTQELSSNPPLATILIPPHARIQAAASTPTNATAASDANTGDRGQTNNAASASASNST
T8 sequence (P49674 whole entry): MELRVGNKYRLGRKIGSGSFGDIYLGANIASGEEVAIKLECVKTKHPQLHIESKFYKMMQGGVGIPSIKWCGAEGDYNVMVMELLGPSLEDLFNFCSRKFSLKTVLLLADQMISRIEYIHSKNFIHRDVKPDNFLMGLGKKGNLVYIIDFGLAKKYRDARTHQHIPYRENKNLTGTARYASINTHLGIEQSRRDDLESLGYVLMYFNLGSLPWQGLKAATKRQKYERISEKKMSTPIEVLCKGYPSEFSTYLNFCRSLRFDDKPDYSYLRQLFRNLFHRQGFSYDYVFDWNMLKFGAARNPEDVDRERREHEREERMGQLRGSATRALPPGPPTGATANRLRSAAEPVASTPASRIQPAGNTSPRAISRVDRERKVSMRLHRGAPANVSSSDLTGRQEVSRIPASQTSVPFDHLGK
T7 sequence (O60563 whole entry): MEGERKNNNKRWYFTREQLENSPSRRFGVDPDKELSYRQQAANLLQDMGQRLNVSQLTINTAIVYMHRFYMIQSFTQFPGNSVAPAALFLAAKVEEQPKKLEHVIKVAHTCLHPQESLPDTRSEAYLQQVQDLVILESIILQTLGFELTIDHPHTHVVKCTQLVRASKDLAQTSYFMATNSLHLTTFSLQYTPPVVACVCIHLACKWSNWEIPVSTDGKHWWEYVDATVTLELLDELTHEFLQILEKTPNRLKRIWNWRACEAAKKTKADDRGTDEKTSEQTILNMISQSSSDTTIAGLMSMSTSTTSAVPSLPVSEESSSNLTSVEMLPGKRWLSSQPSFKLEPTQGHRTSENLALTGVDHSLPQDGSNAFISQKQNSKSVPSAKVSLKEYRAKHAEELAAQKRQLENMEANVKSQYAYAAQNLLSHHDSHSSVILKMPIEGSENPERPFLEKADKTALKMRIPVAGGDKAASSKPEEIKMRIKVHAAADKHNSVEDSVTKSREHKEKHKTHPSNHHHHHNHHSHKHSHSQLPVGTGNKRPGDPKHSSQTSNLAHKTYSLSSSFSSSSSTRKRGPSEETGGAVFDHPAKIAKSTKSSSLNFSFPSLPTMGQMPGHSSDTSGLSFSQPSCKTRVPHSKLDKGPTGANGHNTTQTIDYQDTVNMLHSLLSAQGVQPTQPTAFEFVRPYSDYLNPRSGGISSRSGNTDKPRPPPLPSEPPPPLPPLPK
T7 sequence (P50750 whole entry): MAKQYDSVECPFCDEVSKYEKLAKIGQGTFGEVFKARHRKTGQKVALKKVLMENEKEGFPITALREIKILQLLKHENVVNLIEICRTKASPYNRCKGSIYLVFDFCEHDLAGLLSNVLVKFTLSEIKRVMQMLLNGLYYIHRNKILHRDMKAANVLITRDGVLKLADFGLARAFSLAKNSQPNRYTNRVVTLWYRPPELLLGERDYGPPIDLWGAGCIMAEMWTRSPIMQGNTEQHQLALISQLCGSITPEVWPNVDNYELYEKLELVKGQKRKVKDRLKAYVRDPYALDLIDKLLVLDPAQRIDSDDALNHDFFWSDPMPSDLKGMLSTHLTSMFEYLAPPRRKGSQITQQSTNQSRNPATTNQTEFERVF
T6 sequence (Q00535 whole entry): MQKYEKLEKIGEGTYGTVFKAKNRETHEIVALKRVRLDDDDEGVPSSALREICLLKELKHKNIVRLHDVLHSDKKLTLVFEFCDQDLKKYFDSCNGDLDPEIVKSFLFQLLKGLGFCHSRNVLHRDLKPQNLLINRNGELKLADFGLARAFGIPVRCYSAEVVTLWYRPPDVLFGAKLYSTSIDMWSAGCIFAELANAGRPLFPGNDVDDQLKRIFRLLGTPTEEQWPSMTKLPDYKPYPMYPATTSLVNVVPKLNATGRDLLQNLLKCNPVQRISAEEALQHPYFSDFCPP
T6 sequence (Q15078 99-307, further chain): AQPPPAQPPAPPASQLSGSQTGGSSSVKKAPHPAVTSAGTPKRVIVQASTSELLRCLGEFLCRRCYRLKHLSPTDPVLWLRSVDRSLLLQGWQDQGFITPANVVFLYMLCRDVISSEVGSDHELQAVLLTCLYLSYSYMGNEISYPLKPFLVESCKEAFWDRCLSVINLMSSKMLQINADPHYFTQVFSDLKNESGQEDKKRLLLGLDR
T2 sequence (P22518 whole entry): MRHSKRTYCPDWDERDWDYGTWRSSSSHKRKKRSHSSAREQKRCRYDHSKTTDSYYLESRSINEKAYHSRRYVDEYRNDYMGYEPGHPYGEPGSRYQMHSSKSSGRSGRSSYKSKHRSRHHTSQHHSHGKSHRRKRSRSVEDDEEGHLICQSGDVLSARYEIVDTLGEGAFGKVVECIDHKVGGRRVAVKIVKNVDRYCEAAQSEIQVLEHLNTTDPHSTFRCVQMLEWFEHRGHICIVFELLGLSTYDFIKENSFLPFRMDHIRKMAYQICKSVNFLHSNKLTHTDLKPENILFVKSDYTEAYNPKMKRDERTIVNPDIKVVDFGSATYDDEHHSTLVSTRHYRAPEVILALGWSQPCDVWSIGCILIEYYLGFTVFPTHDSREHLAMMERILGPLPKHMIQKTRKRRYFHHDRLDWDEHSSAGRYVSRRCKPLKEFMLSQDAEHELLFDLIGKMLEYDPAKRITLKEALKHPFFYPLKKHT

The target of one assay is T1, Pim-1 (Homo sapiens, UniProt P11309).
T1 construct: host or cells: bacteria
T1 sequence (P11309 whole entry): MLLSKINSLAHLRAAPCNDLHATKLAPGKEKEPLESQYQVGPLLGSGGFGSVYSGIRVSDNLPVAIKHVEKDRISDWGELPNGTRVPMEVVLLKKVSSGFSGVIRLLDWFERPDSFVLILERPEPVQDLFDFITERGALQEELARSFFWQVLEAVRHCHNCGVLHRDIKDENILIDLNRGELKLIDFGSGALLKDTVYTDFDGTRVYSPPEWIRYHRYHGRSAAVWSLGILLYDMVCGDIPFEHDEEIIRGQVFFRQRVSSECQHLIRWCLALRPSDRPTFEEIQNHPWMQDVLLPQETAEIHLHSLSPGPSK
Put plainly: ADP-Glo kinase inhibition assay, Pim-1. As to conditions: 1 μM compound, 10 μM ATP, duplicate; read-out: PIM1 % residual activity at 1 μM. The assay is classed as biochemical. The procedure: (§1) Kinase enzymatic activities were assayed in 384 well plates using the ADP-GloTM assay kit (Promega, Madison, WI, USA) according to the manufacturer’s guidance. Briefly, the reactions were carried out in a final volume of 6 μL for 30 min at 30 °C in an appropriate kinase buffer (10 mM MgCl2, 1 mM EGTA, 1 mM DTT, 25 mM Tris-HCl pH 7.5, 50 μg/mL heparin), with either protein or peptide as substrate in the presence of 10 μM ATP (40 mM Tris pH 7.5, 20 mM MgCl2 and 0.1 mg/mL of BSA). Afterward, 6 μL of ADP-GloTM Kinase Reagent was added to stop the kinase reaction. After an incubation time of 50 min at room temperature (RT), 12 μL of Kinase Detection Reagent was added for 1 h at RT. The transmitted signal was measured using the Envision (Perkin Elmer, Waltham, MA, USA) microplate luminometer and expressed in relative light unit (RLU). In order to determine the half maximal inhibitory concentration (IC50), the assays were performed in duplicate in the absence or presence of increasing doses of the tested compounds. GraphPad Prism6 software (GraphPad Software, San Diego, CA, USA) was used to fit dose–response curves and to determine the IC50 values. Kinase activities are expressed in the percentage of maximal activity, i.e., measured in the absence of an inhibitor. Peptide substrates were obtained from Proteogenix (Schiltigheim, France).
(§2) The following protein kinases were analyzed in this study: CDK5/p25 (human, recombinant, expressed in bacteria) was assayed with 0.8 μg/μL of histone H1 as substrate; CDK9/CyclinT (human, recombinant, expressed by baculovirus in Sf9 insect cells) were assayed with 0.27 μg/μL of the following peptide: […], as substrate; CK1ε (human, recombinant, expressed by baculovirus in Sf9 insect cells) was assayed with 0.022 μg/μL of the following peptide: […]pAYSITA (“Sp” stands for phosphorylated serine) as CK1-specific substrate; GSK3β (human, recombinant, expressed by baculovirus in Sf9 insect cells) were assayed with 0.010 μg/μL of GS-1 peptide, a GSK-3-selective substrate ([…]pEDEEE); Haspin-kd (human, kinase domain, amino acids 470–798, recombinant, expressed in bacteria) was assayed with 0.007 μg/μL of histone H3 (1–21) peptide ([…]) as substrate; Pim-1 (human proto-oncogene, recombinant, expressed in bacteria) was assayed with 0.8 μg/μL of histone H1 as substrate; MmCLK1 (from Mus musculus, recombinant, expressed in bacteria) was assayed with 0.027 μg/μL of the following peptide: […] as substrate; RnDYRK1A-kd (Rattus norvegicus, amino acids 1–499 including the kinase domain, recombinant, expressed in bacteria, DNA vector kindly provided by Dr. W. Becker, Aachen, Germany) was assayed with 0.033 μg/μL of the following peptide: […] as substrate.
A general note: In ADP-Glo the light output rises with the ADP produced.
With `CCn1ncc2cc3cnccc3c([N+](=O)[O-])c21` [Compound 1c, 1-Ethyl-9-nitro-1H-pyrazolo[3,4-g]isoquinoline], the remaining activity at 1 µM worked out at 100%.
With `CCn1ncc2cc3cnccc3c(N)c21` [Compound 2c, 1-Ethyl-1H-pyrazolo[3,4-g]isoquinolin-9-amine], the remaining activity at 1 µM was 91%.

The same assay, now with this note: 10 μM compound, 10 μM ATP, duplicate; read-out: PIM1 % residual activity at 10 μM.
With `CCn1ncc2cc3cnccc3c([N+](=O)[O-])c21` [Compound 1c, 1-Ethyl-9-nitro-1H-pyrazolo[3,4-g]isoquinoline], the remaining activity at 10 µM came to 70%.
For `CCn1ncc2cc3cnccc3c(N)c21` [Compound 2c, 1-Ethyl-1H-pyrazolo[3,4-g]isoquinolin-9-amine], the remaining activity at 10 µM amounted to 60%.

Another assay addresses T2, MmCLK1 (Mus musculus, UniProt P22518).
T2 construct: host or cells: bacteria
The assay is described as follows: ADP-Glo kinase inhibition assay, CLK1. Format: biochemical. As to conditions: 10 μM ATP, duplicate; read-out: CLK1 IC50. As for the experimental part:
as §1, §2
One may read the pIC50 as the IC50 on a negative log10 scale, so that one unit is a factor of ten. On to `CCn1ncc2cc3cnccc3c([N+](=O)[O-])c21` [Compound 1c, 1-Ethyl-9-nitro-1H-pyrazolo[3,4-g]isoquinoline], for which the pIC50 is 6.78.
Regarding `CCn1ncc2cc3cnccc3c(N)c21` [Compound 2c, 1-Ethyl-1H-pyrazolo[3,4-g]isoquinolin-9-amine], the pIC50 was 6.25.

The same assay, now with this note: read-out: CLK1 % residual activity at 1 μM.
On to `CCn1ncc2cc3cnccc3c([N+](=O)[O-])c21` [Compound 1c, 1-Ethyl-9-nitro-1H-pyrazolo[3,4-g]isoquinoline], for which the remaining activity at 1 µM was found to be 25%.
Consider `CCn1ncc2cc3cnccc3c(N)c21` [Compound 2c, 1-Ethyl-1H-pyrazolo[3,4-g]isoquinolin-9-amine], for which the remaining activity at 1 µM came out at 34%.

Still in this assay, the particulars now being: read-out: CLK1 % residual activity at 10 μM.
`CCn1ncc2cc3cnccc3c([N+](=O)[O-])c21` [Compound 1c, 1-Ethyl-9-nitro-1H-pyrazolo[3,4-g]isoquinoline]: the remaining activity at 10 µM is 6%.
Regarding `CCn1ncc2cc3cnccc3c(N)c21` [Compound 2c, 1-Ethyl-1H-pyrazolo[3,4-g]isoquinolin-9-amine], the remaining activity at 10 µM was found to be 8%.

Another assay deals with T3, RnDYRK1A-kd (Rattus norvegicus, UniProt Q63470).
T3 construct: RnDYRK1A-kd (Rattus norvegicus, amino acids 1–499 including the kinase domain, recombinant, expressed in bacteria); made in house; host or cells: bacteria
The assay is described as follows: ADP-Glo kinase inhibition assay, DYRK1A. The assay is classed as biochemical. As to conditions: 10 μM ATP, duplicate; read-out: DYRK1A IC50. The procedure: as §1, §2
Take `CCn1ncc2cc3cnccc3c([N+](=O)[O-])c21` [Compound 1c, 1-Ethyl-9-nitro-1H-pyrazolo[3,4-g]isoquinoline]: the pIC50 is 5.95.
Still for that read-out and setting: the figure for `CCn1ncc2cc3cnccc3c(N)c21` [Compound 2c, 1-Ethyl-1H-pyrazolo[3,4-g]isoquinolin-9-amine] is 6.60.

The assay is the same for the next values; noted with them: read-out: DYRK1A % residual activity at 1 μM.
On to `CCn1ncc2cc3cnccc3c([N+](=O)[O-])c21` [Compound 1c, 1-Ethyl-9-nitro-1H-pyrazolo[3,4-g]isoquinoline], for which the remaining activity at 1 µM was determined as 44%.
Take `CCn1ncc2cc3cnccc3c(N)c21` [Compound 2c, 1-Ethyl-1H-pyrazolo[3,4-g]isoquinolin-9-amine]: the remaining activity at 1 µM turned out to be 23%.

The assay is the same for the next values; noted with them: read-out: DYRK1A % residual activity at 10 μM.
Consider `CCn1ncc2cc3cnccc3c([N+](=O)[O-])c21` [Compound 1c, 1-Ethyl-9-nitro-1H-pyrazolo[3,4-g]isoquinoline], for which the remaining activity at 10 µM amounted to 18%.
Still for that read-out and setting: the figure for `CCn1ncc2cc3cnccc3c(N)c21` [Compound 2c, 1-Ethyl-1H-pyrazolo[3,4-g]isoquinolin-9-amine] is 6%.

A further assay has as its target T4, GSK3β (Homo sapiens, UniProt P49841).
T4 construct: host or cells: Sf9 insect cells (baculovirus)
The assay is described as follows: ADP-Glo kinase inhibition assay, GSK3β. The assay is classed as biochemical. As to conditions: read-out: GSK3 % residual activity at 1 μM. As for the experimental part:
as §1, §2
On to `CCn1ncc2cc3cnccc3c([N+](=O)[O-])c21` [Compound 1c, 1-Ethyl-9-nitro-1H-pyrazolo[3,4-g]isoquinoline], for which the remaining activity at 1 µM was determined as 53%.
For the compound `CCn1ncc2cc3cnccc3c(N)c21` [Compound 2c, 1-Ethyl-1H-pyrazolo[3,4-g]isoquinolin-9-amine], the remaining activity at 1 µM came out at 82%.

Staying with this assay, now noted: read-out: GSK3 % residual activity at 10 μM.
On to `CCn1ncc2cc3cnccc3c([N+](=O)[O-])c21` [Compound 1c, 1-Ethyl-9-nitro-1H-pyrazolo[3,4-g]isoquinoline], for which the remaining activity at 10 µM stood at 19%.
On the same count and under the same terms, with `CCn1ncc2cc3cnccc3c(N)c21` [Compound 2c, 1-Ethyl-1H-pyrazolo[3,4-g]isoquinolin-9-amine] the figure was 40%.

Another assay addresses T5, Haspin-kd (human, kinase domain, amino acids 470–798) (Homo sapiens, UniProt Q8TF76).
T5 construct: Haspin-kd (human, kinase domain, amino acids 470–798, recombinant, expressed in bacteria); host or cells: bacteria
T5 sequence (Q8TF76 470-798): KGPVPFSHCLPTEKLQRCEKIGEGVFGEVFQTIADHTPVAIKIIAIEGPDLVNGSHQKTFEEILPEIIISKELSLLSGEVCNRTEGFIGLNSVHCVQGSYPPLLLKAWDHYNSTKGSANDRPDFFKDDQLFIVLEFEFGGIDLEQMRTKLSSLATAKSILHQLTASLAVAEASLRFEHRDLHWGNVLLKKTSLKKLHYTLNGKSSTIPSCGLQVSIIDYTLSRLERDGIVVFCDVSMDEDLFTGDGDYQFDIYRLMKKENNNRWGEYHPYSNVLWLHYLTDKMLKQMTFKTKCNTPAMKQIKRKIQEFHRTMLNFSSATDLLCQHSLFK
The assay is described as follows: ADP-Glo kinase inhibition assay, Haspin. The assay is classed as biochemical. As to conditions: 10 μM ATP, duplicate. The procedure:
as §1
`CCn1ncc2cc3cnccc3c([N+](=O)[O-])c21` [Compound 1c, 1-Ethyl-9-nitro-1H-pyrazolo[3,4-g]isoquinoline] showed a negative logarithm of the IC50 (pIC50) of 7.18.
Compound `CCn1ncc2cc3cnccc3c(N)c21` [Compound 2c, 1-Ethyl-1H-pyrazolo[3,4-g]isoquinolin-9-amine] gave a pIC50 of 7.21.

Still in this assay, the particulars now being: Haspin vs. DYRK1A, which was more inhibited than CLK1.
With `CCn1ncc2cc3cnccc3c(N)c21` [Compound 2c, 1-Ethyl-1H-pyrazolo[3,4-g]isoquinolin-9-amine], the “Selectivity Index (SI) Haspin vs. DYRK1A” value is 4.0.

The same assay, now with this note: read-out: Haspin % residual activity at 1 μM.
As to `CCn1ncc2cc3cnccc3c([N+](=O)[O-])c21` [Compound 1c, 1-Ethyl-9-nitro-1H-pyrazolo[3,4-g]isoquinoline], the remaining activity at 1 µM is 38%.
On to `CCn1ncc2cc3cnccc3c(N)c21` [Compound 2c, 1-Ethyl-1H-pyrazolo[3,4-g]isoquinolin-9-amine], for which the remaining activity at 1 µM was found to be 17%.

Staying with this assay, now noted: read-out: Haspin % residual activity at 10 μM.
Take `CCn1ncc2cc3cnccc3c([N+](=O)[O-])c21` [Compound 1c, 1-Ethyl-9-nitro-1H-pyrazolo[3,4-g]isoquinoline]: the remaining activity at 10 µM amounted to 15%.
In the case of `CCn1ncc2cc3cnccc3c(N)c21` [Compound 2c, 1-Ethyl-1H-pyrazolo[3,4-g]isoquinolin-9-amine], the remaining activity at 10 µM turned out to be 3%.

A further assay has as its target T6, CDK5/p25 (Homo sapiens, UniProt Q00535).
T6 construct: host or cells: bacteria
Put plainly: ADP-Glo kinase inhibition assay, CDK5/p25. As to conditions: read-out: CDK5 % residual activity at 1 μM. Format: biochemical. As for the experimental part:
as §1, §2
With `CCn1ncc2cc3cnccc3c([N+](=O)[O-])c21` [Compound 1c, 1-Ethyl-9-nitro-1H-pyrazolo[3,4-g]isoquinoline], the remaining activity at 1 µM was 94%.
Still for that read-out and setting: with `CCn1ncc2cc3cnccc3c(N)c21` [Compound 2c, 1-Ethyl-1H-pyrazolo[3,4-g]isoquinolin-9-amine] the figure was 65%.

Staying with this assay, now noted: read-out: CDK5 % residual activity at 10 μM.
Regarding `CCn1ncc2cc3cnccc3c([N+](=O)[O-])c21` [Compound 1c, 1-Ethyl-9-nitro-1H-pyrazolo[3,4-g]isoquinoline], the remaining activity at 10 µM stood at 79%.
`CCn1ncc2cc3cnccc3c(N)c21` [Compound 2c, 1-Ethyl-1H-pyrazolo[3,4-g]isoquinolin-9-amine]: the remaining activity at 10 µM worked out at 28%.

The next assay concerns the target T7, CDK9/CyclinT (Homo sapiens, UniProt P50750).
T7 construct: host or cells: Sf9 insect cells (baculovirus)
The assay is described as follows: ADP-Glo kinase inhibition assay, CDK9/CyclinT. Format: biochemical. As to conditions: 10 μM ATP, duplicate. The procedure: as §1, §2
`CCn1ncc2cc3cnccc3c([N+](=O)[O-])c21` [Compound 1c, 1-Ethyl-9-nitro-1H-pyrazolo[3,4-g]isoquinoline] showed a pIC50 of 6.37.

Staying with this assay, now noted: read-out: CDK9 % residual activity at 1 μM.
As for `CCn1ncc2cc3cnccc3c([N+](=O)[O-])c21` [Compound 1c, 1-Ethyl-9-nitro-1H-pyrazolo[3,4-g]isoquinoline], the remaining activity at 1 µM stood at 46%.
As for `CCn1ncc2cc3cnccc3c(N)c21` [Compound 2c, 1-Ethyl-1H-pyrazolo[3,4-g]isoquinolin-9-amine], the remaining activity at 1 µM stood at 80%.

The assay is the same for the next values; noted with them: read-out: CDK9 % residual activity at 10 μM.
With `CCn1ncc2cc3cnccc3c([N+](=O)[O-])c21` [Compound 1c, 1-Ethyl-9-nitro-1H-pyrazolo[3,4-g]isoquinoline], the remaining activity at 10 µM came out at 23%.
For `CCn1ncc2cc3cnccc3c(N)c21` [Compound 2c, 1-Ethyl-1H-pyrazolo[3,4-g]isoquinolin-9-amine], the remaining activity at 10 µM amounted to 50%.

A further assay addresses T8, CK1ε (Homo sapiens, UniProt P49674).
T8 construct: host or cells: Sf9 insect cells (baculovirus)
Put plainly: ADP-Glo kinase inhibition assay, CK1ε. Format: biochemical. As to conditions: 1 μM compound, 10 μM ATP, duplicate; read-out: CK1 % residual activity at 1 μM. The procedure: as §1, §2
Take `CCn1ncc2cc3cnccc3c([N+](=O)[O-])c21` [Compound 1c, 1-Ethyl-9-nitro-1H-pyrazolo[3,4-g]isoquinoline]: the remaining activity at 1 µM worked out at 90%.
Consider `CCn1ncc2cc3cnccc3c(N)c21` [Compound 2c, 1-Ethyl-1H-pyrazolo[3,4-g]isoquinolin-9-amine], for which the remaining activity at 1 µM worked out at 84%.

Still in this assay, the particulars now being: 10 μM compound, 10 μM ATP, duplicate; read-out: CK1 % residual activity at 10 μM.
Regarding `CCn1ncc2cc3cnccc3c([N+](=O)[O-])c21` [Compound 1c, 1-Ethyl-9-nitro-1H-pyrazolo[3,4-g]isoquinoline], the remaining activity at 10 µM stood at 58%.
Take `CCn1ncc2cc3cnccc3c(N)c21` [Compound 2c, 1-Ethyl-1H-pyrazolo[3,4-g]isoquinolin-9-amine]: the remaining activity at 10 µM is 48%.
